{"source": "patent EP0095813A2", "about": "“Penetrating topical pharmaceutical compositions containing 9-(2-hydroxyethoxymethyl) guanine” (THE PROCTER & GAMBLE COMPANY, priority 1982, dated 1983)", "key": {"[1]": {"assay": "Skin penetration study, Franz diffusion apparatus, transport across human epidermis in vitro", "type": "in vitro ADME", "details": "binary system with a cell-envelope disordering compound versus standard vehicle/solvent; heat-separated abdominal epidermis, about 31°C", "from_the_text": "The following data illustrate the effects of incorporating 9-(2-hydroxyethoxymethyl) guanine into a standard vehicle/sol- vent versus the same pharmaceutical active used in a binary system with a cell-envelope disordering compound.\nThe above data reflect relative transport of 9-(2-hydroxyethoxymethyl) guanine across human epidermis in vitro.\nIn the above skin penetration studies, human skin, (heat- separated abdominal epidermis, taken at autopsy), was placed in a standard Franz diffusion apparatus (Crown Glass Co., Somerville, N.J.) in a horizontal position between a lower, capped diffusion cell and an upper, open cell. A normal saline solution was added to the lower diffusion cell, abutting the subcutaneous side of the skin, and the test composition comprising a solution of active drug in the carrier at indicated formulation was added to the diffusion cell abutting the epidermal side of the skin.\nThis cell assembly was kept in a constant-temperature room at about 31°C. At appropriate intervals, each diffusion cell assembly was opened and the diffusate from the cell abutting the subcutaneous side of the skin was withdrawn. Drug active in the diffusate was measured using standard analytical techniques. Each trial was run on a separate sample of human skin."}, "[2]": {"details": "cited from earlier work"}}, "data": [{"smiles": "Nc1nc2c(ncn2COCCO)c(=O)[nH]1", "note": "[9-(2-hydroxyethoxymethyl) guanine]", "values": [{"measurement": "Penetration (relative transport across human epidermis in vitro)", "setting": "[1]", "result": "significantly enhanced"}, {"measurement": "solubility in lipophilic solvent systems", "setting": "[2]; lipophilic solvent systems", "result": "almost totally insoluble"}, {"measurement": "solubility in water", "setting": "[2]; water", "result": "slightly soluble"}]}]}
